Laboratory results as given in patent publication US20260085293A1, “SOLUTION AND METHOD FOR TRANSPORTING OR STORING BODY FLUID SAMPLE” (PROVIGATE INC., priority 2023, published 2026).

Tested on: glycoalbumin
Assay: Relative GA value of diluted pool serum with active ingredient after 2 days at 37° C., assayed by HPLC
Set-up: species or system human
Description: Examples will now be described. Blood samples were diluted with diluents containing active ingredients according to the embodiments of the present disclosure, and the GA values thereof were assayed by HPLC on the same day and after two days.
First, a solution containing 10 mM of HEPES and 150 mM of NaCl was prepared. The pH was 8.0. Into this solution, an active ingredient was mixed to prepare a diluent.
In Examples 1 to 4, pool serum was used as the blood samples. The pool serum was prepared by isolating serum from venous blood taken from multiple healthy subjects and then mixing. The resulting product was mixed with the diluent described above. Into 90 μL of the diluent, 10 μL of the blood serum was introduced to prepare a 10-fold dilution (10×) assay sample.
The sample was assayed on the same day (“day 0”) or was stored in a 37° C. constant temperature reservoir for two days (“day 2”) and then assayed.
For the assay conditions, “GA detection by HPLC method” J Chromatogr 597, 271-275 (1992) was referred. Columns used were AEX:Shodex-Asahipak ES-502N (7.5 mm ID ×100 mm) (Showa Denko K.K.) and BAC:TSKgel Boronate-5PW (4.6 mm ID×100 mm) (TOSOH CORPORATION). The eluents used were glycine (JIS special grade), magnesium chloride hexahydrate (JIS special grade), D(−)-sorbitol (Wako 1st grade), ethanol (99.5%, JIS special grade), tris(hydroxymethyl)aminomethane (Tris, Biotechnology grade), and EDTA-2Na. For the analysis, Prominence HPLC system (Shimadzu Corporation) equipped with a system controller was used.
In the graphs indicated in FIGS. 2 to 5, the vertical axis indicates the ratio (relative GA value) of the GA value assayed two days (day 2) after the preparation to the GA value measured on the same day (day 0) as the preparation. When assay was carried out multiple times, the average value is indicated.
Each of the additives was dissolved in the diluent to a predetermined concentration (0.1% to 0.5%) in w/v. For example, specifically, 570 μL of the diluent containing each additive was added to 30 μL of pool serum to prepare a 20× diluted liquid. The GA% of the day 0 sample and that of the day 2 sample left to stand still for 2 days in a 37° C. constant temperature reservoir were assayed by using HPLC.

[1] = 0.1 w/v% active ingredient in diluent
[2] = 0.2 w/v% active ingredient in diluent

SMILES | relative GA value (day 2 / day 0) [1] | relative GA value (day 2 / day 0) [2] | relative GA value (day 2 / day 0), in words (0.5 w/v% active ingredient in diluent, not illustrated)
OC[C@H]1O[C@H](O[C@H]2[C@H](O)[C@@H](O)[C@@H](O[C@H]3[C@H](O)[C@@H](O)C(O)O[C@@H]3CO)O[C@@H]2CO)[C@H](O)[C@@H](O)[C@@H]1O (mixture of isomers) [MT, maltotriose] | about 98.2 | about 99.8 | excessively large
CN[C@@H]1[C@@H](O)[C@@H](O[C@@H]2[C@@H](O)[C@H](O[C@H]3O[C@H]([C@@H](C)O)[C@@H](O)[C@H](O)[C@H]3N)[C@@H](N)C[C@H]2N)OC[C@]1(C)O [G418, reference compound] | about 98.2 | about 98.2 | –
CC(=O)N[C@H]1C(O)O[C@H](CO)[C@@H](O)[C@@H]1O[C@H](C)C(=O)O (stereo partly drawn) [NAM, N-acetylmuramic acid] | about 98.5 | about 99.0 | –
[H]/N=C(/N)N[C@H]1[C@H](O)[C@@H](O)[C@H](O[C@@H]2O[C@@H](C)[C@](O)(C=O)[C@H]2O[C@@H]2O[C@@H](CO)[C@H](O)[C@@H](O)[C@@H]2NC)[C@@H](N/C(N)=N\[H])[C@@H]1O [STR, streptomycin, reference compound] | about 100% | about 102% | –
